Marks after values point to notes of the source that are not given here.

Series [1] concerns uterus of ovariectomized (OVX) rats. Description: Uterine weight in ovariectomized rat post-menopausal model. Type of series: in vivo, Sprague Dawley rats. To be noted: for Uterine Weight % inch (Uterine Weight % increase versus the ovarierectomized controls): oral, daily for 4 days. Here is the method: (§1) In the examples illustrating the methods, a post-menopausal model is used in which effects of different treatments upon circulating lipids are determined.
(§2) Seventy-five day old female Sprague Dawley rats (weight range of 200 to 225 g) are obtained from Charles River Laboratories (Portage, Mich.). The animals are either bilaterally ovariectomized (OVX) or exposed to a Sham surgical procedure at Charles River Laboratories, and then shipped after one week. Upon arrival, they are housed in metal hanging cages in groups of 3 or 4 per cage and had ad libitum access to food (calcium content approximately 0.5%) and water for one week. Room temperature is maintained at 22.2°±1.7° C. with a minimum relative humidity of 40%. The photoperiod in the room is 12 hours light and 12 hours dark.
(§3) After a one week acclimation period (therefore, two weeks post-OVX) daily dosing with test compound is initiated. 17α-ethynyl estradiol or the test compound are given orally, unless otherwise stated, as a suspension in 1% carboxymethylcellulose or dissolved in 20% cyclodextrin. Animals are dosed daily for 4 days. Following the dosing regimen, animals are weighed and anesthetized with a ketamine: Xylazine (2:1, V:V) mixture and a blood sample is collected by cardiac puncture. The animals are then sacrificed by asphyxiation with CO2, the uterus is removed through a midline incision, and a wet uterine weight is determined.

For series [2], the system named is uterine eosinophil peroxidase. The experiment in a line: Uterine Eosinophil Peroxidase (EPO) Assay. Type of series: in vivo, Sprague Dawley rats. As to conditions: for Uterine Eosinophil (Vmax) (Eosinphil peroxidase Vmaxium): OVX rats, oral, daily for 4 days.
From the text: as §2, §3
Uteri are kept at 4° C. until time of enzymatic analysis. The uteri are then homogenized in 50 volumes of 50 mM Tris buffer (pH−8.0) containing 0.005% Triton X-100. Upon addition of 0.01% hydrogen peroxide and 10 mM O-phenylenediamine (final concentrations) in Tris buffer, increase in absorbance is monitored for one minute at 450 nm. The presence of eosonophils in the uterus is an indication of estrogenic activity of a compound. The maximal velocity of a 15 second interval is determined over the initial, linear portion of the reaction curve.

Series [3] deals with ovariectomized (OVX) rats. Description: Serum cholesterol analysis in ovariectomized rats. Type of series: in vivo, Sprague Dawley rats. As to conditions: for Serum Cholest. % Dec. (Serum cholesterol decrease versus ovariectomized controls): oral, daily for 4 days. Here is the method: as §1, §2, §3
Blood samples are allowed to clot at room temperature for 2 hours, and serum is obtained following centrifugation for 10 minutes at 3000 rpm. Serum cholesterol is determined using a Boehringer Mannheim Diagnostics high performance cholesterol assay. Briefly the cholesterol is oxidized to cholest-4-en-3-one and hydrogen peroxide. The hydrogen peroxide is then reacted with phenol and 4-aminophenazone in the presence of peroxidase to produce a p-quinone imine dye, which is read spectrophotemetrically at 500 nm. Cholesterol concentration is then calculated against a standard curve. The entire assay is automated using a Biomek Automated Workstation.

Series [4] relates to MCF-7 breast adenocarcinoma cells. Description: MCF-7 Proliferation Assay. Type of series: cell-based. As to conditions: Homo sapiens, MCF7; tritiated thymidine incorporation, 48 hours with drug, versus the control (DMSO); read-out: IC50, inhibition of proliferation of MCF-7 cells. Here is the method:
MCF-7 breast adenocarcinoma cells (ATCC HTB 22) are maintained in MEM (minimal essential medium, phenol red-free, Sigma, St. Louis, Mo.) supplemented with 10% fetal bovine serum (FBS) (V/V), L-glutamine (2 mM), sodium pyruvate (1 mM), HEPES {(N-[2-hydroxyethyl]piperazine-N′-[2-ethanesulfonic acid]10 mM}, non-essential amino acids and bovine insulin (1 ug/mL) (maintenance medium). Ten days prior to assay, MCF-7 cells are switched to maintenance medium supplemented with 10% dextran coated charcoal stripped fetal bovine serum (DCC-FBS) assay medium) in place of 10% FBS to deplete internal stores of steroids. MCF-7 cells are removed from maintenance flasks using cell dissociation medium (Ca++/Mg++ free HBSS (phenol red-free) supplemented with 10 mM HEPES and 2 mM EDTA). Cells are washed twice with assay medium and adjusted to 80,000 cells/mL. Approximately 100 μL (8,000 cells) are added to flat-bottom microculture wells (Costar 3596) and incubated at 37° C. in a 5% CO2 humidified incubator for 48 hours to allow for cell adherence and equilibration after transfer. Serial dilutions of drugs or DMSO as a diluent control are prepared in assay medium and 50 μL transferred to triplicate microcultures followed by 50 μL assay medium for a final volume of 200 μL. […] Samples are counted by liquid scintillation using a Wallac BetaPlace β counter. […]

Setting [5] is: compared to the ovariectomized animals, EE2 orally at 0.1 mg/kg/day.

As to `Cc1cc(C(=O)c2c(-c3ccc(O)cc3)sc3cc(O)ccc23)cc(C)c1OCCN1CCCCC1.Cl` [compound 5, [2-(4-Hydroxyphenyl)-6-hydroxybenzo[b]thien-3-yl][4-[2-(1-piperidinyl)ethoxy]3,5-dimethylphenyl]methanone Hydrochloride], the “Uterine Weight % inch (Uterine Weight % increase versus the ovarierectomized controls)” value was −24.4% in series [1] (dose 0.1 mg/kg), −16.4% in series [1] (dose 1.0 mg/kg) and 27.4% in series [1] (dose 10.0 mg/kg). Also, the “Uterine Eosinophil (Vmax) (Eosinphil peroxidase Vmaxium)” value (shortened to “Uterine Eosinophil (Vmax)”) in series [2] (dose 0.1 mg/kg) is 4.0; in series [2] (dose 1.0 mg/kg) it was 7.2; in series [2] (dose 10.0 mg/kg), 25.9*. Also, the “Serum Cholest. % Dec. (Serum cholesterol decrease versus ovariectomized controls)” value in series [3] (dose 0.1 mg/kg) was 33.8* %; in series [3] (dose 1.0 mg/kg) it was 55.5* %; in series [3] (dose 10.0 mg/kg), 74.9* %. Moreover, in series [4], the IC50 is 40 nM.
In the case of `Cl.N#Cc1cc(C(=O)c2c(-c3ccc(O)cc3)sc3cc(O)ccc23)ccc1OCCN1CCCCC1` [compound 9, [2-(4-Hydroxyphenyl)-6-hydroxybenzo[b]thien-3-yl][4-[2-(1-piperidinyl)ethoxy]3-cyanophenyl]methanone Hydrochloride], the “Uterine Weight % inch (Uterine Weight % increase versus the ovarierectomized controls)” value in series [1] (dose 10.0 mg/kg) is reported as 16.8%. The “Uterine Eosinophil (Vmax)” value in series [2] (dose 10.0 mg/kg) came to 7.8. Besides, the “Serum Cholest. % Dec. (Serum cholesterol decrease versus ovariectomized controls)” value in series [3] (dose 10.0 mg/kg) is 38.8* %.
As to `Cc1cc(C(=O)c2c(-c3ccc(O)cc3)sc3cc(O)ccc23)cc(C(C)(C)C)c1OCCN1CCCCC1.Cl` [compound 6, [2-(4-Hydroxyphenyl)-6-hydroxybenzo[b]thien-3-yl][4-[2-(1-piperidinyl)ethoxy]-3-t-butyl-5-methylphenyl]methanone Hydrochloride], the “Uterine Weight % inch (Uterine Weight % increase versus the ovarierectomized controls)” value in series [1] (dose 1.0 mg/kg) is given as −35.7%. Moreover, the “Uterine Eosinophil (Vmax)” value in series [2] (dose 1.0 mg/kg) amounted to 2.8. In addition, the “Serum Cholest. % Dec. (Serum cholesterol decrease versus ovariectomized controls)” value in series [3] (dose 1.0 mg/kg) is reported as 55.2* %.
As for `Cl.O=C(c1ccc(OCCN2CCCCC2)c(Cl)c1)c1c(-c2ccc(O)cc2)sc2cc(O)ccc12` [compound 7, [2-(4-Hydroxyphenyl)-6-hydroxybenzo[b]thien-3-yl][4-[2-(1-piperidinyl)ethoxy]3-chlorophenyl]methanone Hydrochloride], in series [1] (dose 10.0 mg/kg), the “Uterine Weight % inch (Uterine Weight % increase versus the ovarierectomized controls)” value was 46.1* %. The “Uterine Eosinophil (Vmax)” value in series [2] (dose 10.0 mg/kg) was found to be 30.9. For the same compound, the “Serum Cholest. % Dec. (Serum cholesterol decrease versus ovariectomized controls)” value in series [3] (dose 10.0 mg/kg) is given as 62.2* %.
Consider `Cl.O=C(c1ccc(OCCN2CCCCC2)c(F)c1)c1c(-c2ccc(O)cc2)sc2cc(O)ccc12` [compound 1, [2-(4-Hydroxyphenyl)-6-hydroxybenzo[b]thien-3-yl][4-[2-(1-piperidinyl)ethoxy]3-fluorophenyl]methanone Hydrochloride], for which the “Uterine Weight % inch (Uterine Weight % increase versus the ovarierectomized controls)” value in series [1] (dose 0.1 mg/kg) was 18.4%; in series [1] (dose 1.0 mg/kg) it was 14.9%; in series [1] (dose 10.0 mg/kg), 12.5%. Besides, the “Uterine Eosinophil (Vmax)” value in series [2] (dose 0.1 mg/kg) was 5.4; in series [2] (dose 1.0 mg/kg), 4.5; in series [2] (dose 10.0 mg/kg) it was 2.7. Also, the “Serum Cholest. % Dec. (Serum cholesterol decrease versus ovariectomized controls)” value is recorded as 45.1* % in series [3] (dose 0.1 mg/kg), 59.5* % in series [3] (dose 1.0 mg/kg) and 64.1* % in series [3] (dose 10.0 mg/kg).
Regarding `Cl.O=C(c1ccc(OCCN2CCCCC2)cc1Cl)c1c(-c2ccc(O)cc2)sc2cc(O)ccc12` [compound 8, [2-(4-Hydroxyphenyl)-6-hydroxybenzo[b]thien-3-yl][4-[2-(1-piperidinyl)ethoxy]2-chlorophenyl]methanone Hydrochloride], the “Uterine Weight % inch (Uterine Weight % increase versus the ovarierectomized controls)” value in series [1] (dose 10.0 mg/kg) is 37.5* %. The “Uterine Eosinophil (Vmax)” value in series [2] (dose 10.0 mg/kg) turned out to be 12.0. Besides, in series [3] (dose 10.0 mg/kg), the “Serum Cholest. % Dec. (Serum cholesterol decrease versus ovariectomized controls)” value is 42.0* %.
Turning to `C#C[C@]1(O)CC[C@H]2[C@@H]3CCc4cc(O)ccc4[C@H]3CC[C@@]21C` [EE2, 17α-ethynyl estradiol, reference compound], the “effect on uterine weight (in words)” value in series [1] (setting [5]) is “substantially greater than the uterine weight of the ovariectomized animals”. Besides, the “Uterine Weight % inch (Uterine Weight % increase versus the ovarierectomized controls)” value in series [1] (dose 0.1 mg/kg) was 207.5* %. Moreover, the “Uterine Eosinophil (Vmax)” value in series [2] (dose 0.1 mg/kg) is recorded as 205.8*. Moreover, the “eosinophil infiltration into the uterus (in words)” value in series [2] (stromal layer of ovariectomized rat uteri) is “substantial and expected increase in eosinophil infiltration”. Further, the “effect on serum cholesterol (in words)” value in series [3] (setting [5]) is on record as “caused a decrease in serum cholesterol”. The “Serum Cholest. % Dec. (Serum cholesterol decrease versus ovariectomized controls)” value in series [3] (dose 0.1 mg/kg) is listed as 87.3* %.
